This test can be described thus: Binding affinity to human 6His-thr cIAP1 BIR3 (253 to 363) domain expressed in Escherichia coli measured after 105 mins in dark by time-resolved fluorescence laser-equipped multimode plate reader.

On to `Cc1[nH]nc(Nc2ncnc3cc(OCCCN4CCN(C(=O)c5cnc(N6CCN(C[C@H]7CN[C@H](C)CN7CC(=O)N7CC(C)(C)c8c7cc(Cc7ccc(F)cc7)c(=O)n8C)[C@H](C)C6)nc5)CC4)c(S(=O)(=O)C(C)(C)C)cc23)c1C`, for which the IC50 was 5 nM.
In the case of `CN[C@@H](C)C(=O)N[C@H](C(=O)N1CCC[C@H]1c1nc(C(=O)c2ccc(F)cc2)cs1)C1CCN(C(=O)c2cnc(N3CCN(CCCOc4cc5ncnc(Nc6n[nH]c(C)c6C)c5cc4S(=O)(=O)C(C)(C)C)CC3)cn2)CC1` it was 7.9 nM.

Broadly, the IC50 is the concentration needed to halve the response being measured.

For the origin of these results see BindingDB's records for doi:10.1021/acs.jmedchem.1c01118 (Glaxosmithkline, 2021).
